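1) Cells in 96-well plates. 2) Compound, 48 h, 5 concentrations. 3) Linear interpolation between surrounding doses. 4) Unreached endpoint = highest concentration. Abbreviation: GI50, concentration required for 50% inhibition of growth. TGI marks complete inhibition of growth.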
What was measured:
Assay in all cases: DTP human tumour cell line panel, 48 h
ACHN renal = tested on: ACHN renal
HCC-2998 colon = tested on: HCC-2998 colon
HCT-116 colon = tested on: HCT-116 colon
HS 578T breast = tested on: HS 578T breast
HT29 colon = tested on: HT29 colon
NCI-H226 lung = tested on: NCI-H226 lung
NCI/ADR-RES ovarian = tested on: NCI/ADR-RES ovarian
SNB-75 CNS = tested on: SNB-75 CNS
T-47D breast = tested on: T-47D breast
U251 CNS = tested on: U251 CNS

NC(=S)N/N=C\c1nccc2c(C(F)(F)C(F)(F)C(F)(F)F)cccc12
GI50 (ACHN renal): 0.0582 µM
TGI (ACHN renal): 1.31 µM
GI50 (HCC-2998 colon): 0.229 µM
TGI (HCC-2998 colon): 4.48 µM
GI50 (HCT-116 colon): 0.0348 µM
TGI (HCT-116 colon): 1.45 µM
GI50 (HS 578T breast): 0.889 µM
TGI (HS 578T breast): 22.6 µM
GI50 (HT29 colon): 0.137 µM
TGI (HT29 colon): 3.62 µM
GI50 (NCI-H226 lung): 0.162 µM
TGI (NCI-H226 lung): 1.12 µM
GI50 (NCI/ADR-RES ovarian): 0.167 µM
TGI (NCI/ADR-RES ovarian): 1.65 µM
GI50 (SNB-75 CNS): 0.124 µM
TGI (SNB-75 CNS): 2.87 µM
GI50 (T-47D breast): 0.0369 µM
TGI (T-47D breast): 1.51 µM
GI50 (U251 CNS): 0.0569 µM
TGI (U251 CNS): 1.25 µM

O=C(O)c1cc2c(c3ccsc13)-c1ccccc1CC2
GI50 (ACHN renal): 36.6 µM
TGI (ACHN renal): > 100 µM
GI50 (HCC-2998 colon): 24.2 µM
TGI (HCC-2998 colon): 69.6 µM
GI50 (HCT-116 colon): 34.9 µM
TGI (HCT-116 colon): > 100 µM
GI50 (HS 578T breast): 30.5 µM
TGI (HS 578T breast): 88.9 µM
GI50 (HT29 colon): 39.4 µM
TGI (HT29 colon): > 100 µM
GI50 (NCI-H226 lung): 34.8 µM
TGI (NCI-H226 lung): > 100 µM
GI50 (NCI/ADR-RES ovarian): 33.7 µM
TGI (NCI/ADR-RES ovarian): > 100 µM
GI50 (SNB-75 CNS): 86.2 µM
TGI (SNB-75 CNS): > 100 µM
GI50 (T-47D breast): 44.7 µM
TGI (T-47D breast): > 100 µM
GI50 (U251 CNS): 36.8 µM
TGI (U251 CNS): > 100 µM

CCCNc1cccc(-n2ncc3c(N/N=C/c4ccncc4)ncnc32)c1
GI50 (ACHN renal): > 6.92 µM
TGI (ACHN renal): > 25 µM
GI50 (HCC-2998 colon): > 25 µM
TGI (HCC-2998 colon): > 25 µM
GI50 (HCT-116 colon): 1.82 µM
TGI (HCT-116 colon): > 25 µM
GI50 (HS 578T breast): 1.1 µM
TGI (HS 578T breast): > 25 µM
GI50 (HT29 colon): 14.9 µM
TGI (HT29 colon): > 25 µM
GI50 (NCI-H226 lung): > 16.5 µM
TGI (NCI-H226 lung): > 25 µM
GI50 (NCI/ADR-RES ovarian): 1.93 µM
TGI (NCI/ADR-RES ovarian): > 25 µM
GI50 (SNB-75 CNS): 0.934 µM
TGI (SNB-75 CNS): > 19.4 µM
GI50 (T-47D breast): > 25 µM
TGI (T-47D breast): > 25 µM
GI50 (U251 CNS): 17 µM
TGI (U251 CNS): > 25 µM

Cc1cc(O)c2c(c1)C(=O)C(c1c(C)cc3c(c1O)C(=O)C1OC1C3=O)=CC2=O (stereo not given)
TGI (ACHN renal): 2.36 µM
TGI (HCC-2998 colon): 17.2 µM
TGI (HCT-116 colon): 3.21 µM
TGI (HS 578T breast): 98.9 µM
TGI (HT29 colon): 11.7 µM
TGI (NCI-H226 lung): 32.8 µM
TGI (NCI/ADR-RES ovarian): > 23.1 µM
TGI (SNB-75 CNS): 28.1 µM
TGI (T-47D breast): > 100 µM
TGI (U251 CNS): 20.6 µM

CCC(=O)OC1=CN2C(=NC(c3ccc(N)cc3)=CC2c2cc(OC)c(OC)c(OC)c2)S1 (stereo not given)
GI50 (ACHN renal): 3.35 µM
TGI (ACHN renal): 18.2 µM
GI50 (HCC-2998 colon): 4.47 µM
TGI (HCC-2998 colon): 15.7 µM
GI50 (HCT-116 colon): 3.51 µM
TGI (HCT-116 colon): 13.1 µM
GI50 (HS 578T breast): 3.6 µM
TGI (HS 578T breast): > 100 µM
GI50 (HT29 colon): 3.82 µM
TGI (HT29 colon): 14.2 µM
GI50 (NCI-H226 lung): 7.47 µM
TGI (NCI-H226 lung): > 100 µM
GI50 (NCI/ADR-RES ovarian): 3.73 µM
TGI (NCI/ADR-RES ovarian): > 100 µM
GI50 (SNB-75 CNS): 5.12 µM
TGI (SNB-75 CNS): 23.3 µM
GI50 (T-47D breast): 4.01 µM
TGI (T-47D breast): 30.8 µM
GI50 (U251 CNS): 3.49 µM
TGI (U251 CNS): 13.8 µM

From PubChem BioAssay (NCI)
